Measurements taken from patent US7767803B2, “Stabilized aptamers to PSMA and their use as prostate cancer therapeutics” (Archemix Corp., priority 2002, dated 2010).

Columns and labels:
[1] = test system: metastatic, androgen independent prostate cancer; settings: docetaxel in combination with prednisone, given every three weeks; control mitoxantrone and prednisone; cited from earlier work
PSMA NAALADase activity = PSMA NAALADase activity (Homo sapiens, UniProt Q04609); test: NAALADase inhibition assay; format: biochemical; settings: relative to parent aptamer
Sequence of PSMA NAALADase activity (Q04609 with tags, fused parts or gaps limits assumed): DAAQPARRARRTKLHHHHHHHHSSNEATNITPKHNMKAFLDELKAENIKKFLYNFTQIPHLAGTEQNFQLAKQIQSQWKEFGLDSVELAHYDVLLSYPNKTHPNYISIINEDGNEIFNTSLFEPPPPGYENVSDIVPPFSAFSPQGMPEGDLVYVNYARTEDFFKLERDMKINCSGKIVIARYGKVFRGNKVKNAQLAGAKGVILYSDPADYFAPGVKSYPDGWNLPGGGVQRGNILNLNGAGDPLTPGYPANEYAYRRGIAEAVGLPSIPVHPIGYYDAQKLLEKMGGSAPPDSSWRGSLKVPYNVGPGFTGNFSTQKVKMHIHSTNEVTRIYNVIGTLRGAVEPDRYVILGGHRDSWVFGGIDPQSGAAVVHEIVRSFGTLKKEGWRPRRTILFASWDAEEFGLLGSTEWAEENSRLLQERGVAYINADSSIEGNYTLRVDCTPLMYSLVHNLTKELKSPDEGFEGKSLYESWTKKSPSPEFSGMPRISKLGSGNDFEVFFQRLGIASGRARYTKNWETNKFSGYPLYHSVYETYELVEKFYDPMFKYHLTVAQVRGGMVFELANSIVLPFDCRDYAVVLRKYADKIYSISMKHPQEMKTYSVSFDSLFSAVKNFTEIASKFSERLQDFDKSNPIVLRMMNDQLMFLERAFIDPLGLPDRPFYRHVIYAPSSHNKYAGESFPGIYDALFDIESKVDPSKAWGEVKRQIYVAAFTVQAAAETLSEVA
Procedure: These point mutant constructs were assessed for activity in terms of inhibition of PSMA NAALADase activity. The NAALADase assay was performed in 96 well format. PSMA aptamers were serially diluted in 1× reaction buffer (40 mM Tris-HCl, pH 7.4, 0.1 mM ZnSO4, 0.1 mg/mL BSA) in a standard 96 well plate to be tested at a final concentration range from 30 pM to 1 μM. The enzyme was prepared by diluting 30 μL of 100 nM PSMA into 8 mL of reaction buffer, and kept cool on ice. The substrate was prepared by adding 19 μl of NAAG [Glutamate-3,4-^3H], 50.8 Ci/mmol, 19.7 μM (Perkin-Elmer, Wellesley, Mass., NET1082) into 2.2 mL of reaction buffer.
Following preparation of all reagents, 4 μl of each serially diluted aptamer was added to a separate 96 well plate (the reaction plate). 76 μl of diluted enzyme was added to the corresponding wells containing aptamer. 80 μl of reaction buffer was added to one column of wells to serve as a background control. The diluted substrate and reaction plate were then moved to a room at 37° C. and allowed to equilibrate for 10 minutes. […]
To separate the cleavage products, […] and Glutamate, from the substrate, an AG 1-×8, 200-400 mesh, formate resin (BioRad, Hercules, Calif., # 140-1454) was used. […] The plate was sealed and read using a Packard Topcount Microplate Scintillation Counter. […]

LNCaP cells (PSMA+) = test: LNCaP FACS assay with fluorescein-labeled aptamers; format: cell-based
Excerpt: The parent A9 aptamer sequence (SEQ ID NO 168) is predicted by the MFOLD algorithm implemented in the RNAStructure program v. 4.11 to fold into a partially mismatched hairpin that encompasses almost the entire molecule. A series of truncated constructs were designed, in which self-pairing nucleotides from the 5′- and 3′-ends were simultaneously removed, chemically synthesized using conventional solid-phase phosphoramidite-based synthesis, and tested. In the design of some of the truncated A9 aptamers, see e.g. ARC591, additional bases were added to the 3′ and 5′ ends of the truncate, where the bases added to the 5′ end were capable of forming Watson-Crick base pairs with those added to the 3′ end thereby increasing the length of stem structure. Truncated aptamers were 5′-labeled with fluorescein and tested for binding in to LNCaP cells (PSMA+) in the FACS assay described below. PC-3 cells (PSMA−) were used as a control cell line. The sequences of the truncated A9 aptamers designed are listed below in Table 6 below.
To accomplish 5′-fluorescein labeling, aptamers were synthesized with a 5′-amine and then modified post-solid phase synthesis. The required aptamer was dissolved to a concentration of ˜10-50 mg/mL in 25 mM phosphate buffer, pH 7.4. The small molecule, NHS ester of fluorescein, was dissolved to a concentration of 10 mg/mL in DMSO. 1.5 Molar equivalents were added to the aptamer and the solution vortexed for ˜15 seconds. The reaction was allowed to proceed in the dark at room temperature for 1 hour and then a 5 μL aliquot was withdrawn, diluted with water and analyzed by HPLC. Additional equivalents of the small molecule were added until the reaction was complete by HPLC. Excess small molecules were removed by gel filtration.
To prepare aptamers for the FACS assay, PSMA aptamers were serially diluted (0-1 uM) in FACS buffer (1×DPBS w/Ca^++/Mg^++ (Gibco, Carlsbad, Calif.) supplemented with 10 mg/mL salmon sperm DNA & 0.2% Na Azide), in a V-bottom 96 well plate, at the concentrations to be tested. LNCaP and PC-3 cells (ATCC, Manassas, Va.) were harvested with trypsin, and 200,000 cells/well were counted, washed once with 1×DPBS (with Ca^++ and Mg^++) and resuspended in 200 μl of FACS Buffer. The 200 μl of cells in FACS buffer were added to individual wells of a new 96 well plate, pelleted by centrifugation (1300 rpm for 5 minutes), and resuspended in 100 μl of the appropriate concentration of diluted aptamer. FACS buffer, c-PSMA antibody (3C6) (Northwest Biotherapeutics, Bothell, Wash., Cat #: 60-5002) and an irrelevant fluorescein isothiocyanate (“FITC”) mouse IgG1 isotype control antibody (BD Pharmingen, San Diego, Calif., Cat#: 554679) were used as controls. The wells of aptamer/cell mixture were incubated at room temperature for 20-30 minutes. […]

PC-3 cells (PSMA−) = test: FACS assay on control cell line; format: cell-based
Excerpt: The parent A9 aptamer sequence (SEQ ID NO 168) is predicted by the MFOLD algorithm implemented in the RNAStructure program v. 4.11 to fold into a partially mismatched hairpin that encompasses almost the entire molecule. A series of truncated constructs were designed, in which self-pairing nucleotides from the 5′- and 3′-ends were simultaneously removed, chemically synthesized using conventional solid-phase phosphoramidite-based synthesis, and tested. […]
To prepare aptamers for the FACS assay, PSMA aptamers were serially diluted (0-1 uM) in FACS buffer (1×DPBS w/Ca^++/Mg^++ (Gibco, Carlsbad, Calif.) supplemented with 10 mg/mL salmon sperm DNA & 0.2% Na Azide), in a V-bottom 96 well plate, at the concentrations to be tested. LNCaP and PC-3 cells (ATCC, Manassas, Va.) were harvested with trypsin, and 200,000 cells/well were counted, washed once with 1×DPBS (with Ca^++ and Mg^++) and resuspended in 200 μl of FACS Buffer. […]
Cell samples were analyzed on a FACS Scan machine (Becton Dickinson, San Jose, Calif.) under the following parameters: FSC/SSC, FL-1/FSC, FL-3/FSC. The unstained and/or isotype controls were used to establish gating parameters, and the data was analyzed using Cell Quest Pro software version 5.1.1 (Becton Dickinson Immunocytometry Systems, San Jose, Calif.).

In the case of `CC(=O)O[C@@]12CO[C@@H]1C[C@H](O)[C@@]1(C)C(=O)[C@H](O)C3=C(C)[C@@H](OC(=O)[C@H](O)[C@@H](NC(=O)OC(C)(C)C)c4ccccc4)C[C@@](O)([C@@H](OC(=O)c4ccccc4)[C@H]21)C3(C)C` [Taxotere, docetaxel], the “survival advantage over the control group” value [1] is listed as “approximately 2.5 months”.

In the case of “GGAGGACCGAAAAAGACCUGACUUCUAUACUAAGUCUACGUUCCUCCA (2'-fluoro pyrimidines, further chemistry not given here) [ARC591, 48-nt minimer of A9, 2′-OH purines, 2′-fluoro pyrimidines]”, the “NAALADase inhibition activity (in words)” value (PSMA NAALADase activity) is reported as “retained full functional activity” and the “binding to LNCaP (PSMA+) cells by FACS (in words)” value (LNCaP cells (PSMA+)) is reported as “retained full functional activity”.

B1: GGGAGGACGAUGCGGACCGAAAAAGACCUGAfCfUfUfCfUAfUAfCfUAAGfUfCfUAf CGfUfUfCfCfCAGAfCGAfCfUfCGfCfCfCGA (nucleic acid)
chain: GGGAGGACGAUGCGGACCGAAAAAGACCUGACUUCUAUACUAAGUCUACGUUCCCAGACGACUCGCCCGA
modifications: listed as RNA, chemistry not fully specified
notes: existing PSMA specific aptamer of rRfY composition, described in U.S. Ser. No. 09/978,969
In the case of B1, the “binding to LNCaP (PSMA+) cells by FACS (in words)” value (LNCaP cells (PSMA+)) is reported as “binding to LNCaP (PSMA+) cells” and the “binding to PC-3 (PSMA−) cells by FACS (in words)” value (PC-3 cells (PSMA−)) is reported as “not to PC-3 (PSMA−) cells”.
